In a melting point compilation (Tetko et al.; mined from patent text by program, amines drawn as free bases though some values may be those of a salt):

melting point | Compound
219 °C | C=CCOc1cc(-c2cc(=O)c3c(O)cc(O)cc3o2)ccc1OC
166 to 168 °C | COc1cc(/C=C/C(=O)/C=C/c2cc(OC)c(O)c(OC)c2)cc(OC)c1O
49 °C | CCCCCCCCOC(=O)C(=C1SCCCS1)c1cccc(C(F)(F)F)c1
254 °C | CCOc1cc(C)ccc1C1CCN(CCCCNC(=O)c2ccc(NC(=O)c3ccc(Cl)cc3)cc2)CC1
190 to 192 °C | O=C(O)c1cccc(-c2nn(Cc3ccccc3)c3ccccc23)c1
164 to 166 °C | COC(=O)c1ccc2c(c1)S(=O)(=O)c1ccccc1N=C2N1CCOCC1
155 to 158 °C | O=C1C(=O)c2ccccc2C2=C1SCC1(CCN(C(=O)c3cccc(Cl)c3)CC1)O2
226 °C | O=C(c1ccc(F)cc1)c1ccc2[nH]c(=O)nc(-c3cccc(Cl)c3)c2c1
106 to 108 °C | CC(=C=CC(C)(C)c1ccc(Cl)cc1)C(=O)O
91 to 94 °C | Cc1nc(C(C)C)c(Sc2cccc(Cl)c2)[nH]1
> 300 °C | COc1ccccc1C=Cc1nc2c([nH]1)c(=O)n(C)c(=O)n2C
252 to 255 °C | O=C1C=C(Nc2cc(F)ccc2F)CCN1
180 to 182 °C | O=C1C[C@]2(c3ccccc3)CCCC[C@H]2C(=O)N1 (relative stereo)
175 to 177 °C | COc1cc(NS(=O)(=O)c2ccc(Cl)cc2)c(C(=O)Cl)cc1OC
167 to 170 °C | O=C(Nc1ccc(-n2nc(C(F)(F)F)nc2Cl)cc1)c1ccncc1F
168 to 170 °C | CCN(CC)c1ccc(C2(c3ccc(N(C)C)cc3N(C)C)OC(=O)c3ccccc32)cc1 (stereo not given)
37 to 39 °C | COC(=O)C(C)c1ccc2c(=O)c3ccccc3ccc2c1 (stereo not given)
130 to 131 °C | CS(=O)(=O)NCCSc1cccc2nccn12
108 to 109 °C | OCc1ccc(-c2nn(Cc3ccccc3)c3ccccc23)o1
125 to 126 °C | N#Cc1ccccc1-c1ccc(CCl)cc1
144 °C | CCCCCCCCCCCCCCCCCCNC(=O)Nc1ccc(O)cc1
200 to 202 °C | Cc1ccc(-c2ccc(S(C)(=O)=O)cc2)n1-c1ccc(Br)cc1
105 to 106 °C | CCN1CC2(CCN(Cc3ccccc3)CC2)OC1=O
120 to 122 °C | CN1C(=O)Cn2c(nn(Cc3ccccc3)c2=O)-c2cc(Cl)ccc21

melting point | Compound
263 to 266 °C | Cc1ccc(C(=O)C2=C(O)C(=O)N(c3ccc(C)nn3)C2c2ccc(OCCN(C)C)cc2)cc1 (stereo not given)
94 to 95 °C | Cc1c(C)c2c(c(C)c1N)CC(C)(CN1CCC(CCO)CC1)O2 (stereo not given)
62 to 64 °C | Cc1cccc(OCC(=S)NCCN2CCCC2)c1C
100 to 102 °C | CCCC[C@H](CO)C(=O)NOCc1ccccc1
70 to 72 °C | O=Cc1ccc(S(=O)(=O)CCCl)cc1
100 to 102 °C | COC(=O)C(Oc1ccc(Cl)cc1)c1ccc(Oc2ccc(Cl)cc2)cc1 (stereo not given)
81.1 to 83.9 °C | Nc1nc2ccccc2c2c1nc(-c1ccccc1)n2CCCCNC(=O)c1ccc2ccccc2n1
90 to 92 °C | Cc1ccc(Sc2ccnc3sccc23)cc1
110 to 111 °C | Cc1ccc(S(=O)(=O)c2nnnn2C)cc1
105 to 108 °C | COc1cc2sc(CC(C)(Oc3ccc(C(C)C)cc3)C(=O)O)cc2c(Cl)c1OC (stereo not given)
172 to 174 °C | C=CCN1C(=O)NC(C)=C(C(=O)OC(C)C)C1c1cccc([N+](=O)[O-])c1 (stereo not given)
> 250 °C | COc1cc2ncc(C#N)c(Nc3ccc4[nH]ccc4c3)c2cc1OC
68 °C | C[Si](C)(C)CCCOC1CCN(c2ccc([N+](=O)[O-])cc2)C1 (stereo not given)
140 °C | CCCCc1cn(Cc2ccc(-c3ccccc3C(=O)OC)cc2)c2cc(CO)ccc2c1=O
91 to 96 °C | O=C(O)COc1ccc(C(=NO)c2ccccc2F)c(Cl)c1Cl
207 to 208 °C | Nc1nc(-c2cc(Cl)ccc2Cl)nc(N2CCC2)n1
99 to 101 °C | CN1CCC(C(=O)CCc2ccccc2O)CC1
86 °C | Nc1ccc(SC(F)(F)F)cc1[N+](=O)[O-]
109 to 110 °C | CC(C)(CSc1ccc(Cl)cc1)C(O)Cn1ccnc1 (stereo not given)
136 to 138 °C | Cc1ccccc1Cc1ccc(C(=O)O)o1
85 to 88 °C | CCCc1ccc(S(=O)(=O)n2c(CCC(=O)OC)cc3cc(Cl)ccc32)cc1
193 to 195 °C | CC(=O)NC[C@H]1CN(c2ccc(C3=CCN(c4nnc(C)s4)CC3)c(F)c2)C(=O)O1
54 to 56 °C | CCOC(=O)C(C)c1cc(C(C)(C)C)c(O)c(C(C)(C)C)c1 (stereo not given)
96 to 97 °C | CC(Oc1ccc(F)cc1F)c1ccnc2ncnn12 (stereo not given)

melting point | Compound
203 to 204 °C | Cc1ccc(-c2ccc3c(c2)C=C(C(=O)Nc2ccc(CN4CCCCC4)cc2)CCS3)cc1
129 °C | CCn1cc(C#Cc2cccc(OC)c2)cc1C(=O)O
179 to 181 °C | NC(=O)c1ncn2c1NCCC2c1cccc(C(F)(F)F)c1 (stereo not given)
68 to 76 °C | COc1cc2c(cc1Nc1ncc(Cl)c(Nc3cccnc3OC)n1)CCN(CC(=O)N(C)C)CC2
92.5 to 94 °C | CCCCCC(CC(=O)O)c1cc(C(=O)CC)c(OC)cc1OC (stereo not given)
195 to 196 °C | COCCOC(=O)Nc1cc(N2CC=CCC2)nc2nc(=O)on12
256 to 257 °C | O=C(c1ccco1)N1CCc2cc(S(=O)(=O)n3cc(-c4ccccc4)[nH]c3=O)ccc21
89 to 90 °C | CCCC(=O)c1cc(-c2ccccc2)no1
109 to 111 °C | COC(=O)C=C(C)NCC(O)CO (stereo not given)
107 to 109 °C | CC(C)N(CCCC(=NNC(N)=S)c1ccccc1)C(=O)c1ccccc1
40 to 41 °C | c1ccc(Sc2cc(Sc3ccccc3)cc(Sc3ccccc3)c2)cc1
123 to 124 °C | COCc1c(C(=O)OC)sc2nnsc12
122 to 124 °C | CC(C)[C@@H](NC(=O)OC(C)(C)C)[C@H]1CCn2c(cc3ccccc32)C1
65 to 67 °C | CC(C)(C)[Si](C)(C)Oc1c(I)cc(Cl)c2cccnc12
184 to 185 °C | CCSc1cc(O)nc(N(C)C)n1
151 to 152 °C | Nc1cccc(Cc2cc(O)ccc2O)c1
150 to 151 °C | COc1ccc(C2Sc3c(ccc4ccccc34)N(CCN(C)C)C(=O)C2OC(=O)c2ccccc2O)cc1 (stereo not given)
236 to 237 °C | Cc1ccc2sc(C(=O)O)cc(=O)c2c1
185 to 186 °C | CC(C)(C)N1C(=O)c2ccc(C(=O)Cl)cc2S1(=O)=O
141 to 142 °C | CCCN(c1ccccc1)c1nc(=O)c2cccnc2s1
142 to 143 °C | Cc1ccccc1NC(=O)Nc1ccc(CN)cc1
116 to 117 °C | Cn1nc(C(F)(F)F)cc1Oc1cc(C#N)cc(-n2ccc(C(F)(F)F)n2)c1
158 to 160 °C | CCc1c(C(=O)OC(C)C)ncc2[nH]c3ccc(NC(C)=S)cc3c12
116 °C | OC(CN1CCNC1=S)c1cccc(F)c1 (stereo not given)

melting point | Compound
104 to 105 °C | O=C(c1ccc(Br)cc1)c1cccc([N+](=O)[O-])c1
131 to 133 °C | N=c1[nH]c2ccc(Cl)cc2c2nc(-c3ccco3)nn12
245 to 247 °C | CCn1cc(C(=O)O)c(=O)c2cc(F)c(-c3ccnc(N)n3)cc21
82 °C | Cn1nccc1OCc1c(S(C)(=O)=O)ccc(C(=O)C2C(=O)CC(C)(C)CC2=O)c1Cl
245 to 248 °C | NC(=O)c1cc(=O)c(-c2ccccc2)co1
117 to 121 °C | O=C(O)c1ccc(OCCNC(=O)C2Cc3ccccc3N2S(=O)(=O)c2ccc(-c3cc(C(F)(F)F)ccc3Cl)cc2)cc1 (stereo not given)
> 300 °C | Cc1[nH]c(=O)c2c(ccc3nc(Nc4c(Cl)cccc4Cl)n(C)c32)c1CCO
70 to 79 °C | CSC(Oc1cc(C)c2ncc(I)cc2c1)C(=O)NC(C)(C#N)CF (stereo not given)
45 °C | CCCCCCCC(=O)C=Cc1ccc(O)c(OC)c1
186 to 188 °C | COC(=O)c1ccc(C(=O)N2Cc3cccn3Cc3ccccc32)cc1
125 to 130 °C | CC=CC1OC(=O)c2ccc(N)cc21 (stereo not given)
160 to 163 °C | O=C1NCCc2c(-c3cccc(-c4ccccc4)c3)[nH]c3cccc1c23
231 to 232 °C | CC(=O)n1nc(-c2nc3ccccc3o2)oc1=O
121 to 124 °C | CCN(C)C(N)=C(C#N)C(N)=S
117 to 118 °C | Cc1nc2c(NC(=O)C(C)(C)C)cccn2c1Cl
80 to 81 °C | COc1cc(C)c(O)c(CCCCCCCCCCO)n1
249 to 250 °C | CC1(C)Oc2ccc(C#N)cc2C(Oc2ccnc(O)c2)C1O (stereo not given)
149 to 150 °C | CC1Sc2nccn2C1(C)C(O)C=Cc1ccco1 (stereo not given)
96.5 to 98 °C | CCCCN(C(=O)c1ccc(Cl)cc1)[C@@H]1CN(CC)C[C@H]1O (relative stereo)
114 to 115 °C | CCCc1nn(CC)c2c(=O)[nH]c(-c3ccccc3OCC)nc12
159 to 167 °C | CN(C)C1CCN2CCc3ccccc3C2(c2ccc(F)cc2)C1 (stereo not given)
164 °C | CCCCOc1cc(/C=C(\OCC)C(=O)O)ccc1OCCc1ccc(NS(=O)(=O)CCCC)cc1
208 to 210 °C | Cc1nn(C)c2nc(N)c(-c3ccc(F)cc3)nc12
147 to 151 °C | Cc1ccc(C(=O)Nc2ccc(CN3CCOCC3)c(C(F)(F)F)c2)cc1-c1ccc2cnncc2c1

Compound | melting point
COc1ccc2[nH]cc3c2c1[C@@]1(C)OCCN(C)[C@@H]1C3 (relative stereo) | 200 to 202 °C
CCn1cc(C(=O)OC)c(=O)c2cc(F)c(N3CCNCC3)cc21 | 179 to 181 °C
CN1C(=O)[C@H](NC(=O)/C=C/c2cccc(Cl)c2)N=C(c2ccccc2)c2ccccc21 | 229 to 231 °C
CON=C(C1=Nc2ccc(Cl)cc2C(c2ccccc2F)=[N+]([O-])C1)[N+](=O)[O-] | 207 to 209 °C
COC(C)(C)C(Cl)=NO | 95 °C
CCN1CCC(O)(c2cc(F)cc(Cl)c2)C1 (stereo not given) | 117 to 118 °C
COC(=O)C=C1CC(=O)N(c2ccccc2)c2cc(Cl)ccc2N1 | 199 to 201 °C
C=CCN1CC2OC(c3ccccc3)(C1)c1ccccc12 (stereo not given) | 127 to 128 °C
O=c1cc(O)cc(CBr)o1 | 77 to 78 °C
